Assay results from patent US20200276273A1, “METHOD FOR TREATING MYELOID LEUKEMIA” (UNIVERSITY OF MIAMI, priority 2017, published 2020).
Starred links: 1 amine or outer side, 2 acyl side, 3 side chain; linkers in the order of their positions; H or OH if unused. Non-standard residues stand in square brackets, D forms with d. Residues, ends and D or L forms follow the SMILES beside them. *: point of attachment. Tyr(Me) = O-methyl-tyrosine, COc1ccc(C[C@H](N[*:1])C(=O)[*:2])cc1; Phe(F5) = N[C@@H](Cc1c(F)c(F)c(F)c(F)c1F)C(=O)O; hArg = N=C(N)NCCCC[C@H](N)C(=O)O; 12Ado = NCCCCCCCCCCCC(=O)O; Nle = CCCC[C@H](N)C(=O)O; Orn = NCCC[C@H](N)C(=O)O; Abu = CC[C@H](N)C(=O)O; PhAc = O=C(Cc1ccccc1)*

Columns and labels:
[1] = nude mice, 10 μg B.i.d. s.c.
From the text: Eight-weeks-old female athymic nude mice (Hsd: Athymic Nude-Foxn1^nu), obtained from Harlan Laboratories, were housed in sterile cages in a temperature-controlled room with a 12-hours light\12-hours dark schedule. Mice were fed autoclaved chow and water ad libitum. Human myelogenous leukemia cells KG-1, KG-1a, K-562 and THP-1 were used in log phase of growth. Xenografts were initiated by subcutaneous (s.c.) injection of 1×10^7 cells into the right flank of nude mice. For each cell line, once tumor reached an appropriate size (approx. 40 mm3), mice were randomly divided into two groups of 15 animals each, which received s.c. injections twice a day into the left flank of, phosphate-buffered saline (PBS) ([…] containing 0.1% DMSO, or MIA-602 at a dose of 10 μg. […] At the end of the experiment, mice were sacrificed under carbon dioxide followed by cervical dislocation. All animal procedures were performed in compliance with the Guide for the Care and Use of Laboratory Animals published by the NIH, and approved by the Animal Care and Use Committee of the University of Miami.

pituitary = settings: biological activity on the pituitary; cited from earlier work
KG-1 cells = experiment: Cellular uptake of fluorescently labeled MIA-602; settings: 2.5 μM Alexa Fluor 555 labelled peptide, 30 minutes
Protocol: For the detection of cellular uptake, MIA-602 was conjugated to Alexa Fluor 555 according to the manufacturer's instructions (Alexa Fluor 555 NHS ester, tris(triethylammonium salt, Life Technologies, Carlsbad, Calif.). Cells were incubated with 2.5 μM fluorescently labelled peptide or unconjugated fluorophore for 30 minutes (1×10^6 cells/tube). At the end of incubation, cells were washed 3 times in PBS, fixed in 4% paraformaldehyde, mounted, and imaged as described above. ImageJ software (NIH, Bethesda, Md.) was used to recolor the images, for the purpose of enhancing visual perception of cellular uptake.

[2] = molecular target: GHRH splice variant 1 receptor (human)
[3] = molecular target: GHRH splice variant 1 receptor (human); remark: listed apart in the source
[4] = molecular target: GHRH splice variant 1 receptor (human); remark: listed apart in the source
[5] = 30 days, treated animals vs those bearing no tumors

In the case of CCCC[C@H](NC(=O)[C@@H](NC(=O)[C@H](CC(=O)O)NC(=O)[C@H](CCC(N)=O)NC(=O)[C@H](CC(C)C)NC(=O)[C@H](CC(C)C)NC(=O)[C@H](CCCN)NC(=O)[C@H](Cc1c[nH]cn1)NC(=O)[C@H](C)NC(=O)[C@H](CO)NC(=O)[C@H](CC(C)C)NC(=O)[C@H](CCC(N)=O)NC(=O)[C@H](CC)NC(=O)[C@H](CC(C)C)NC(=O)[C@@H](NC(=O)[C@H](CCCN)NC(=O)[C@H](Cc1c[nH]cn1)NC(=O)[C@H](Cc1ccc(OC)cc1)NC(=O)[C@H](CCCCNC(=N)N)NC(=O)[C@H](C)NC(=O)[C@@H](NC(=O)[C@H](Cc1c(F)c(F)c(F)c(F)c1F)NC(=O)[C@@H](NC(=O)[C@H](C)NC(=O)[C@H](CC(=O)O)NC(=O)[C@@H](CCCNC(=N)N)NC(=O)[C@H](Cc1ccc(O)cc1)NC(=O)CCCCCCCCCCCNC(=O)Cc1ccccc1)[C@@H](C)CC)[C@@H](C)O)C(C)C)[C@@H](C)CC)C(=O)N[C@H](CCCNC(=N)N)C(=O)N[C@@H](CCCCNC(=N)N)C(N)=O [MIA-602, [PhAc-Ada^0-Tyr^1, D-Arg^2, Fpa5^6, Ala^8, Har^9, Tyr(Me)^10, His^11, Orn^12, Abu^15, His^20, Orn^21, Nle^27, D-Arg^28, Har^29]hGH-RH(1-29)NH2] ({PhAc-12Ado}-Y[dR]DAI[Phe(F5)]TA[hArg]Y(Me)H[Orn]VL[Abu]QLSAH[Orn]LLQDI[Nle][dR][hArg]-NH2), the body weights [1, 5] is reported as “No significant differences”, the “weights of various organs (liver, spleen, and kidneys)” value [1, 5] is reported as “No significant differences” and the “macroscopic observation of organs” value ([1]; after treatment) is reported as “no differences”.

In the case of “Tyr-Ala-Asp-Ala-Ile^5-Phe-Thr-Asn-Ser-Tyr^10-Arg-Lys-Val-Leu-Gly^15-Gln-Leu-Ser-Ala-Arg^20-Lys-Leu-Leu-Gln-Asp^25-Ile-Met-Ser-Arg^29-NH2 [GHRH(1-29)]”, the “potency retained relative to native GHRH” value (pituitary) is listed as ≥ 50%.

For “fluorescently labeled MIA-602: MIA-602 conjugated to Alexa Fluor 555 for the detection of cellular uptake ({PhAc-12Ado}-Y[dR]DAI[Phe(F5)]TA[hArg][Tyr(Me)]H[Orn]VL[Abu]QLSAH[Orn]LLQDI[Nle][dR][hArg]-NH2; also: Alexa Fluor 555 conjugated via NHS ester, site not given here)”, the cellular uptake (KG-1 cells) was “not observed”.

With {PhAc-12Ado}-Y[dR]DAI[Phe(F5)]TA[hArg][Tyr(Me)]H[Orn]VL[Abu]QLSAH[Orn]LLQDI[Nle][dR][hArg]-NH2 the decrease of phosphorylation of Akt (Western blot, 8 h incubation with MIA-602) [2] was 85%, the reduction in cell proliferation (cell count, 5 µM MIA-602, 24 and 48 hours) [3] was 80% and the fold-change in expression of cell death-related genes (qPCR array, 24 h MIA-602) [4] was 28.9 fold.
